Patent US8703715B2, “Methods for inhibiting growth of prolactin-responsive cancer cells with cyclosporine a or other cyclophilin inhibitors” (The Trustees of the University of Pennsylvania, priority 2004, dated 2014)

What was measured:
[1] = human patients, approved indications (immunosuppressive use); cited from earlier work
breast cancer cells = breast cancer cells in culture

In the case of cyclosporine A, the Peak serum concentrations [1] is listed as 2 to 8 µg/mL and the “media concentration having profound effects on survival of breast cancer cells” value (breast cancer cells) is listed as no less than 20 ng/mL.
